Test results taken from publication PMC4339527 (Bioorganic & medicinal chemistry, 2015).
Like-named read-outs stand apart in the source and are kept apart here.

Legend:
P. aeruginosa T3SS [1] = settings: read-out: translocation IC50; activity in translocation assays; cited from earlier work
P. aeruginosa T3SS [2] = target: T1, P. aeruginosa T3SS (Pseudomonas aeruginosa, UniProt P95434); test: T3SS-mediated secretion assay; format: cell-based; settings: for potency increase in the β-lactamase secretion assay over the unoptimized compound: 37a vs 34o, 37b vs 34r
P. aeruginosa T3SS [3] = target: T1, P. aeruginosa T3SS; format: cell-based; settings: for IC50: read-out: translocation IC50, CHO cells + P. aeruginosa PA99U, LDH release

Compound	potency increase in the β-lactamase secretion assay over the unoptimized compound (P. aeruginosa T3SS [2]) [fold]	IC50 (P. aeruginosa T3SS [3]) [µM]	further results
O=C(NN=Cc1cc(Br)cc(Br)c1O)c1ccc([N+](=O)[O-])cc1 [INP-007]	–	–	IC50 (P. aeruginosa T3SS [1]): 0.8 µM
CC[C@@H](Oc1ncc(Cl)cc1Cl)C(=O)NCc1ccc2[nH]ccc2c1 [Compound 37b, (R)-N-[(Indol-5-yl)methyl]-2-[(3,5-dichloropyridin-2-yl)oxy]butanamide]	2.6	–	improvement in the translocation assay over the unoptimized compound (P. aeruginosa T3SS [3]; 37b vs 34r): 2.5 fold
CC[C@@H](Oc1ncc(Cl)cc1Cl)C(=O)NCc1ccc2sccc2c1 [Compound 37a, (R)-N-[(Benzothiophene-5-yl)methyl]-2-[(3,5-dichloropyridin-2-yl)oxy]butanamide]	6	–	–
N-(Benzothiophene-5-yl)-2-(2,4-dichlorophenoxy)propanamide [Compound 34o]	–	5.3 ± 3.7	IC50 (P. aeruginosa T3SS [2]; read-out: secretion IC50): 6 ± 1.6 µM
N-[(Benzimidazol-5-ylmethyl])-2-(2,4-dichlorophenoxy)propanamide [Compound 34q]	–	33 ± 8	–
